Measurements published in patent US10442796B2, “2,3,5-substituted thiophene compound as protein kinase inhibitor” (KOREA INSTITUTE OF SCIENCE AND TECHNOLOGY, priority 2016, dated 2019).
Numbering of substitutions follows the chain as printed. Where a name gives a salt, the structure may show the parent alone.

Experiments:
Assay in all cases: Growth inhibitory activity against Ba/F3 cell line
Type in all cases: cell-based
[1] = target: T1, FLT3-ITD-F691L-D835Y Ba/F3 cells (Homo sapiens, UniProt P36888, F691L/D835Y, cells depend on it, form not given); conditions: Ba/F3 expressing FLT3-ITD-F691L-D835Y; 72 hours; cell titer glo; read-out: IC50 (uM) FLT3-ITD-F691L-D835Y
T1 sequence (P36888 1-993 F691L/D835Y): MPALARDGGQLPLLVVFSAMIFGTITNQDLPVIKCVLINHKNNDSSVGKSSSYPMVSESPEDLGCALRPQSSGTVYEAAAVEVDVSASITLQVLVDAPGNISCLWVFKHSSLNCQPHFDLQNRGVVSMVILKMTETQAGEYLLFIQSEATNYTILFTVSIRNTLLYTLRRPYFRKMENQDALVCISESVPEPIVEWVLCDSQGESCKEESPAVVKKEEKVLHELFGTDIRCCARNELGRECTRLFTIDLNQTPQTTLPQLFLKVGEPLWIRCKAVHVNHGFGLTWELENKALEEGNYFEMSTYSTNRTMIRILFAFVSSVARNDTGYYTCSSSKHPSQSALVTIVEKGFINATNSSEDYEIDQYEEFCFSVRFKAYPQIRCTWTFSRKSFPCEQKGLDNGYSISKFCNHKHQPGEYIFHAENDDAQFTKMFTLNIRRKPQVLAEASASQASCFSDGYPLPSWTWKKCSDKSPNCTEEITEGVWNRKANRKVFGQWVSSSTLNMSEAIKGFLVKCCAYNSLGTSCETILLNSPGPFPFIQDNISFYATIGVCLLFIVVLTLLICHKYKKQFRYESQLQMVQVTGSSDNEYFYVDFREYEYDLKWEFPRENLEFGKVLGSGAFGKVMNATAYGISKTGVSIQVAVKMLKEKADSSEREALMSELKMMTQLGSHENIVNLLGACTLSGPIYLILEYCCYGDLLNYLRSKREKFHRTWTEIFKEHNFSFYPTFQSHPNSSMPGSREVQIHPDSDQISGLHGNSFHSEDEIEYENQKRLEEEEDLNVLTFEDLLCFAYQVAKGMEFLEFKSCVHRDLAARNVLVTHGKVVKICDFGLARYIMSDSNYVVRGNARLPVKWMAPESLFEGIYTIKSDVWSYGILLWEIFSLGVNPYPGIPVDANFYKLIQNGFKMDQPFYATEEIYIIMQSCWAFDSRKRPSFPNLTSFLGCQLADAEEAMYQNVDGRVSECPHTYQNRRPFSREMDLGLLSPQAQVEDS
Experimental: (§1) A Ba/F3 cell line expressing an FLT3 mutation gene was cultured in a culture solution including 90% RPMI, 10% FBS, and an antibiotic (Welgene). 100 uL of the Ba/F3 cell line was put into each of 5,000 wells of a TC-treated 96 well plate (SPL), and then 1 uL of a test compound diluted in dimethylsulfoxide (diluted for each 3 paint from a concentration of 1 mM, total 10 concentrations) was each injected thereinto. Thereafter, the resulting cell lines were incubated in a cell culture incubator for 72 hours. 50 uL of a cell titer glo (Promega) solution was added thereto, the resulting mixture was stored at room temperature for 10 minutes, and then the light emission intensity was measured by using a reader (Envision, PerkinElmer). The light emission intensity was shown as a graph for each final concentration of the test compound, and the GI50 value was obtained by using a Prism 5.0 (GraphPad) software.

[2] = target: T2, FLT3-ITD Ba/F3 cells (Homo sapiens, UniProt P36888, cells depend on it, form not given); conditions: Ba/F3 expressing FLT3-ITD; 72 hours; cell titer glo; read-out: IC50 (uM) FLT3-ITD
T2 sequence (P36888 1-993): T1 sequence (P36888 1-993 F691L/D835Y) with L691F, Y835D
Experimental: as §1

[3] = test system: Parental Ba/F3 cells; conditions: BaF3; Parental Ba/F3 with mouse IL-3 1 ng/mL; 72 hours; cell titer glo
Experimental: as §1
A parental Ba/F3 cell line having no FLT3 mutation gene was cultured by using a culture solution supplemented with mouse IL-3 (R&D Systems), such that a final concentration became 1 ng/mL in the culture solution including 90% RPMI, 10% FBS, and an antibiotic (Welgene). The activity was measured by a method which is the same as described above.

## NC(=O)Nc1cc(C#Cc2ccccc2)sc1C(=O)N[C@H]1CCCNC1 [Example 2, (S)-5-(phenylethynyl)-N-(piperidin-3-yl)-3-ureidothiophene-2-carboxamide]
[1]
  GI50: < 0.001 µM
[2]
  GI50: < 0.001 µM
[3]
  IC50: 0.159 µM

## NC(=O)Nc1cc(C#Cc2cccnc2)sc1C(=O)N[C@H]1CCCNC1 [Example 3, (S)—N-(piperidin-3-yl)-5-(pyridin-3-ylethynyl)-3-ureidothiophene-2-carboxamide]
[1]
  GI50: < 0.004 µM
[2]
  GI50: < 0.005 µM
[3]
  IC50: 6.46 µM

## NC(=O)Nc1cc(C#Cc2ccncc2)sc1C(=O)N[C@H]1CCCNC1 [Example 4, (S)—N-(piperidin-3-yl)-5-(pyridin-4-ylethynyl)-3-ureidothiophene-2-carboxamide]
[1]
  GI50: 0.01 µM
[2]
  GI50: 0.016 µM
[3]
  IC50: 24 µM

## NC(=O)Nc1cc(C#Cc2cccc([N+](=O)[O-])c2)sc1C(=O)N[C@H]1CCCNC1 [Example 5, (S)-5-((3-nitrophenyl)ethynyl)-N-(piperidin-3-yl)-3-ureidothiophene-2-carboxamide]
[1]
  GI50: < 0.004 µM
[2]
  GI50: < 0.005 µM
[3]
  IC50: 2.06 µM

## N#Cc1cccc(C#Cc2cc(NC(N)=O)c(C(=O)N[C@H]3CCCNC3)s2)c1 [Example 6, (S)-5-((3-cyanophenyl)ethynyl)-N-(piperidin-3-yl)-3-ureidothiophene-2-carboxamide]
[1]
  GI50: < 0.004 µM
[2]
  GI50: < 0.005 µM
[3]
  IC50: 1.59 µM

## NC(=O)Nc1cc(C#Cc2ccc([N+](=O)[O-])cc2)sc1C(=O)N[C@H]1CCCNC1 [Example 7, (S)-5-((4-nitrophenyl)ethynyl)-N-(piperidin-3-yl)-3-ureidothiophene-2-carboxamide]
[1]
  GI50: < 0.004 µM
[2]
  GI50: < 0.005 µM
[3]
  IC50: 1.86 µM

## NC(=O)Nc1cc(C#Cc2ccc(Cl)cc2)sc1C(=O)N[C@H]1CCCNC1 [Example 8, (S)-5-((4-chlorophenyl)ethynyl)-N-(piperidin-3-yl)-3-ureidothiophene-2-carboxamide]
[1]
  GI50: < 0.001 µM
[2]
  GI50: 0.001 µM
[3]
  IC50: 0.36 µM

## NC(=O)Nc1cc(C#Cc2ccc(F)cc2)sc1C(=O)N[C@H]1CCCNC1 [Example 9, (S)-5-((4-fluorophenyl)ethynyl)-N-(piperidin-3-yl)-3-ureidothiophene-2-carboxamide]
[1]
  GI50: < 0.001 µM
[2]
  GI50: < 0.001 µM
[3]
  IC50: 0.429 µM

## NC(=O)Nc1cc(C#Cc2ccccn2)sc1C(=O)N[C@H]1CCCNC1 [Example 10, (S)—N-(piperidin-3-yl)-5-(pyridin-2-ylethynyl)-3-ureidothiophene-2-carboxamide]
[1]
  GI50: 0.004 µM
[2]
  GI50: 0.005 µM
[3]
  IC50: 4.62 µM

## N#Cc1ccc(C#Cc2cc(NC(N)=O)c(C(=O)N[C@H]3CCCNC3)s2)cc1 [Example 11, (S)-5-((4-cyanophenyl)ethynyl)-N-(piperidin-3-yl)-3-ureidothiophene-2-carboxamide]
[1]
  GI50: < 0.001 µM
[2]
  GI50: < 0.001 µM
[3]
  IC50: 0.143 µM

## NC(=O)Nc1cc(C#Cc2n[nH]c3ccccc23)sc1C(=O)N[C@H]1CCCNC1 [Example 12, (S)-5-((1H-indazol-3-yl)ethynyl)-N-(piperidin-3-yl)-3-ureidothiophene-2-carboxamide]
[1]
  GI50: 0.027 µM
[2]
  GI50: 0.037 µM
[3]
  IC50: > 10 µM

## NC(=O)Nc1cc(C#Cc2ccc(F)nc2)sc1C(=O)N[C@H]1CCCNC1 [Example 13, (S)-5-((6-fluoropyridin-3-yl)ethynyl)-N-(piperidin-3-yl)-3-ureidothiophene-2-carboxamide]
[1]
  GI50: 0.004 µM
[2]
  GI50: 0.002 µM
[3]
  IC50: 2.22 µM

## NC(=O)Nc1cc(C#Cc2ccc(F)c(F)c2)sc1C(=O)N[C@H]1CCCNC1 [Example 14, (S)-5-((3,4-difluorophenyl)ethynyl)-N-(piperidin-3-yl)-3-ureidothiophene-2-carboxamide]
[1]
  GI50: < 0.001 µM
[2]
  GI50: < 0.001 µM
[3]
  IC50: 0.269 µM

## Cn1cc(C#Cc2cc(NC(N)=O)c(C(=O)N[C@H]3CCCNC3)s2)cn1 [Example 15, (S)-5-((l-methyl-1H-pyrazol-4-yl)ethynyl)-N-(piperidin-3-yl)-3-ureidothiophene-2-carboxamide trifluoroacetate]
[1]
  GI50: 0.009 µM
[2]
  GI50: 0.028 µM
[3]
  IC50: 34.6 µM

## NC(=O)Nc1cc(C#Cc2ccc(C(F)(F)F)cc2)sc1C(=O)N[C@H]1CCCNC1 [Example 16, ((S)—N-(piperidin-3-yl)-5-((4-(trifluoromethyl)phenyl)ethynyl)-3-ureidothiophene-2-carboxamide trifluoroacetate]
[1]
  GI50: 0.004 µM
[2]
  GI50: 0.006 µM
[3]
  IC50: 14.8 µM

## NC(=O)Nc1cc(C#Cc2ccc(C(F)(F)F)nc2)sc1C(=O)N[C@H]1CCCNC1 [Example 17, (S)—N-(piperidin-3-yl)-5-((6-(trifluoromethyl)pyridin-3-yl)ethynyl)-3-ureidothiophene-2-carboxamide]
[1]
  GI50: < 0.004 µM
[2]
  GI50: < 0.005 µM
[3]
  IC50: 2.37 µM

## COC(=O)c1ccc(C#Cc2cc(NC(N)=O)c(C(=O)N[C@H]3CCCNC3)s2)cc1 [Example 18, methyl (S)-4-((5-(piperidin-3-ylcarbamoyl)-4-ureidothiophen-2-yl)ethynyl)benzoate trifluoroacetate]
[1]
  GI50: < 0.001 µM
[2]
  GI50: 0.003 µM
[3]
  IC50: 0.454 µM

## NC(=O)Nc1cc(C#Cc2ccnc(F)c2)sc1C(=O)N[C@H]1CCCNC1 [Example 21, (S)-5-((2-fluoropyridin-4-yl)ethynyl)-N-(piperidin-3-yl)-3-ureidothiophene-2-carboxamide]
[1]
  GI50: < 0.004 µM
[2]
  GI50: < 0.005 µM
[3]
  IC50: 2.78 µM

## NC(=O)Nc1cc(C#Cc2cccc(F)c2)sc1C(=O)N[C@H]1CCCNC1 [Example 22, (S)-5-((3-fluorophenyl)ethynyl)-N-(piperidin-3-yl)-3-ureidothiophene-2-carboxamide]
[1]
  GI50: < 0.001 µM
[2]
  GI50: 0.007 µM
[3]
  IC50: 3.65 µM
